“Also recorded” adds a separate entry of the source. Bridges are numbered along the chain shown (N, C = ends). Where no end group is shown, it is not given here. [ ]: non-standard residue; d: D form. The star is where a group is joined. Nicotinoyl = O=C(c1cccnc1)*; Hexanoyl = CCCCCC(=O)*; PhAc = O=C(Cc1ccccc1)*; Bz = O=C(c1ccccc1)*; Allyl = C=CC*
tested on: HeLa cells; test: Autophagy induction judged by p62 and LC3 immunoblots together; type: cell-based; parameters: key to Activity compared to wild-type WT / Activity (μM) 10, single symbol / Activity (μM) 30, single symbol / Activity (μM) 50, single symbol / Activity (μM) 100, single symbol: −: activity not reported; 0: decreased vs. WT; +: similar to WT; ++: modest increase vs. WT; +++: significant increase vs. WT; conditions: 10 μM; Table 8; one symbol only
Experimental: This 10-mer sequence was substituted with various thiol-containing amino acids at various positions, and then cross-linked with various linkers as described above (FIG. 5, a and FIG. 6).
Cells were treated with peptide in OPTI-MEM (Thermo Scientific) acidified with 0.15% (v/v) 6N HCl for 3 hour. Cells were rinsed with Dulbecco's phosphate buffered saline (PBS) and lysed in lysis buffer (20 mM HEPES, 150 mM NaCl, 1 mM EDTA, 1% Triton X-100, protease inhibitor cocktail (Roche) on ice for 1 hour. Cell lysates were centrifuged at 16,000 g for 10 min at 4° C. and analyzed by SDS-PAGE and transferred to PVDF membranes. The membranes were blocked 5% non-fat dry milk (NFDM) in PBST (PBS+0.05% Tween-20) for 1 hour, then incubated overnight at 4° C. with primary antibody in 5% NFDM in PBST. The blots were washed with PBST and incubated with HRP-conjugated secondary antibodies diluted in 5% NFDM in PBST for 1 hour at room temperature. Membranes were washed with PBST and visualized with SuperSignal West Pico Chemiluminescent Substrate (Thermo Scientific). Semi-quantitative results were obtained by noting the lowest concentration at which both p62 degradation and LC3-I to LC3-II conversion were observed.
(SEQ ID NO: 16)-Sequence. […] The N-terminus was capped with an acetyl group while the C terminus was capped with a —C(O)—NH2 group. The activity reported is a summation of results from both the p62 degradation assay and the LC3 marker assay.

Row | Substance | Activity (μM) 10, single symbol
1 | VCNATCHIWH (V[dC]NAT[dC]HIWH; cysteine pairing not given here; also: Formula I modifications, R1 T, Z MP) [Compound 75] | +

same assay, conditions: HeLa cells, immunoblot, 3 hour treatment

Row | Substance | concentration at which autophagy induction (p62 degradation and LC3 lipidation) was observed [µM]
2 | (hexano)-VcNAcFHIWH (Hexanoyl-V[dC]NA[dC]FHIWH; linker 2-5 via ortho‑xylene (inferred); not fully specified (C-terminus); printed as (hexano)-VcNAcFHIWH) [hexano-DD5-o] | 50
3 | (benzo)-VcNAcFHIWH (Bz-V[dC]NA[dC]FHIWH; linker 2-5 via ortho‑xylene (inferred); not fully specified (C-terminus); printed as (benzo)-VcNAcFHIWH) [benzo-DD5-o] | 50
4 | (pa)-VcNATcHIWH (pa-V[dC]NAT[dC]HIWH; linker 2-6 via meta‑xylene (inferred)) [DD6-m] | 100
5 | (pentene)-VcNAcFHIWH [pentene-DD5-o] | 50
6 | (pa)-VcNAcFHIWA (pa-V[dC]NA[dC]FHIWA; linker 2-5 via ortho‑xylene (inferred)) [His10Ala] | 100
7 | (pa)-VcNAcFHIWH [LL5-o] (VCNACFHIWH; not fully specified (residues 2, 5, N-terminus, bridges); printed as (pa)-VcNAcFHIWH; cysteine pairing not given here) [ortho-xylene linker; stereoisomer with two L-cysteines, negative control] | 100

same assay, conditions: HeLa cells, p62 and LC3 immunoblots

Row | Substance | autophagy induction, result in words | activity relative to DD5-o (fold worse) [fold]
8 | (hexano)-VcNAcFHIWH (Hexanoyl-V[dC]NA[dC]FHIWH; linker 2-5 via ortho‑xylene (inferred); not fully specified (C-terminus); printed as (hexano)-VcNAcFHIWH) [hexano-DD5-o] | induced autophagy, but to a somewhat lesser extent than DD5-o | –
9 | (benzo)-VcNAcFHIWH (Bz-V[dC]NA[dC]FHIWH; linker 2-5 via ortho‑xylene (inferred); not fully specified (C-terminus); printed as (benzo)-VcNAcFHIWH) [benzo-DD5-o] | induced autophagy to a slightly lesser extent than DD5-o | –
10 | (acetyl)-VcNAcFHIWH (Ac-V[dC]NA[dC]FHIWH; linker 2-5 via ortho‑xylene (inferred); not fully specified (C-terminus); printed as (acetyl)-VcNAcFHIWH) [Ac-DD5-o] | almost no autophagy-inducing activity | –
11 | (pa)-VcNAcFHIWH [DD5-allyl] (pentynoyl-V[dC](Allyl)NA[dC](Allyl)FHIWH; not fully specified (C-terminus); printed as (pa)-VcNAcFHIWH [DD5-allyl]) [allyl, unstapled] | did not induce autophagy | –
12 | (pa)-VcNATcHIWH (pa-V[dC]NAT[dC]HIWH; linker 2-6 via meta‑xylene (inferred)) [DD6-m] | capable of inducing autophagy | –
13 | (pa)-VCNAcFHIWH (pa-VCNA[dC]FHIWH; linker 2-5 via ortho‑xylene (inferred)) [LD5-o] | mildly increased autophagy | –
14 | (pa)-VcNAcFAIWH (pa-V[dC]NA[dC]FAIWH; linker 2-5 via ortho‑xylene (inferred)) [His7Ala] | milder effects on activity | –
15 | (pa)-VcNACFHIWH (pa-V[dC]NACFHIWH; linker 2-5 via ortho‑xylene (inferred)) [DL5-o] | mildly increased autophagy | –
16 | (pa)-VcAAcFHIWH (pa-V[dC]AA[dC]FHIWH; linker 2-5 via ortho‑xylene (inferred)) [Asn3Ala] | milder effects on activity | –
17 | (pentene)-VcNAcFHIWH [pentene-DD5-o] | induced autophagy, but to a somewhat lesser extent than DD5-o | –
18 | (pa)-AcNAcFHIWH (pa-A[dC]NA[dC]FHIWH; linker 2-5 via ortho‑xylene (inferred)) [Val1Ala] | complete loss in activity | –
19 | (pa)-VcNAcFHIWA (pa-V[dC]NA[dC]FHIWA; linker 2-5 via ortho‑xylene (inferred)) [His10Ala] | significantly decreased activity | 5
20 | (pa)-VWNATFHIWHD (not fully specified (N-terminus, C-terminus); printed as (pa)-VWNATFHIWHD) [pa-11mer, no linker] | did not increase autophagic activity; also recorded: loss of activity | –
21 | (phenyl)-VcNAcFHIWH (PhAc-V[dC]NA[dC]FHIWH; linker 2-5 via ortho‑xylene (inferred); not fully specified (C-terminus); printed as (phenyl)-VcNAcFHIWH) [phenyl-DD5-o] | showed no activity | –
22 | (pa)-VcNAcFHIWH [LL5-o] (VCNACFHIWH; not fully specified (residues 2, 5, N-terminus, bridges); printed as (pa)-VcNAcFHIWH; cysteine pairing not given here) [ortho-xylene linker; stereoisomer with two L-cysteines, negative control] | no autophagy-inducing activity | –

same assay, conditions: HeLa cells, p62 and LC3 immunoblots; listed as Vail

Row | Substance | autophagy induction, result in words
23 | (pa)-AcNAcFHIWH (pa-A[dC]NA[dC]FHIWH; linker 2-5 via ortho‑xylene (inferred)) [Val1Ala] | complete loss of activity

same assay, conditions: HeLa cells, p62 and LC3 immunoblots; listed as nicotinic acid cap

Row | Substance | autophagy induction, result in words
24 | (nicot)-VcNAcFHIWH (Nicotinoyl-V[dC]NA[dC]FHIWH; linker 2-5 via ortho‑xylene (inferred); not fully specified (C-terminus); printed as (nicot)-VcNAcFHIWH) [nicot-DD5-o] | showed no activity; also recorded: no activity was observed

same assay, conditions: Tat-linked linear peptides; summation of p62 degradation assay and LC3 marker assay

Row | Substance | Activity compared to wild-type WT
25 | VFNATFERWHD [Compound T20, Tat-linked linear peptide] | +
26 | VWAATFHIWHD [Compound T36, Tat-linked linear peptide] | +
27 | VFNATFEFWHD [Compound T18, Tat-linked linear peptide] | +
28 | VWNATFHIWAD [Compound T42, Tat-linked linear peptide] | +++
29 | VWNATFHIWH [Compound T33, Tat-linked linear peptide] | +++
30 | VFNATFDIWHD [Compound T7, Tat-linked linear peptide] | +
31 | VWNAAFHIWHD [Compound T37, Tat-linked linear peptide] | ++
32 | VLNATFEIWHD [Compound T15, Tat-linked linear peptide] | +
33 | GFNATFEIWHD [Compound T24, Tat-linked linear peptide] | 0
34 | VWNATFEIWHD [Compound T2, Tat-linked linear peptide] | ++
35 | VYNATFEIWHD [Compound T13, Tat-linked linear peptide] | 0
36 | VFNATFEIWHE [Compound T11, Tat-linked linear peptide] | +
37 | VFNATWEIWHD [Compound T6, Tat-linked linear peptide] | 0
38 | VFNATFEMWHD [Compound T16, Tat-linked linear peptide] | +
39 | DFNATFEIWHD [Compound T23, Tat-linked linear peptide] | 0
40 | VWNATFELWHD [Compound T12, Tat-linked linear peptide] | +
41 | CFNATFEIWHD [Compound T1, Tat-linked linear peptide] | +
42 | VFNATFELWHD [Compound T8, Tat-linked linear peptide] | ++
43 | VFNACFEIWHD [Compound T5, Tat-linked linear peptide] | 0
44 | VFNATFEYWHD [Compound T19, Tat-linked linear peptide] | +
45 | FNATFEIWHD [Compound T21, Tat-linked linear peptide] | ++
